According to patent publication US20070287830A1, “Trisazo Dye, Composition Containing the Same for Anisotropic Dye Film, Anisotropic Dye Film, and Polarizing Element” (Mitsubishi Chemical Corporation, priority 2004, published 2007):

How the values were obtained:
[1] = degree of polarization of anisotropic dye film formed by wet system film-forming method; format: physicochemical
Description: In the following Examples, the degree of polarization was obtained by measuring the transmittance of an anisotropic dye film by a spectrophotometer having an iodine type polarizing element disposed in an incident optical system, followed by calculation in accordance with the following formula: Degree of polarization (P %)={(Ty−Tz)/(Ty+Tz)}×100
Tz: transmittance of a dye film for a polarized light in the absorption axis direction
Ty: transmittance of a dye film for a polarized light in the polarization axis direction
On the other hand, as a substrate, a glass substrate having a polyimide oriented film formed thereon by silk printing (75 mm×25 mm, thickness 1.1 mm, the polyimide oriented film with a polyimide film thickness of about 800 Å preliminarily subjected to rubbing treatment with cotton cloth) was prepared. […]
The transmittance (Tz) of the obtained anisotropic dye film for a polarized light having a plane of vibration in the absorption axis direction in the plane of the dye film and the transmittance (Ty) for a polarized light having a plane of vibration in the polarization axis direction in the plane of the dye film were measured and shown in FIG. 1. […]

[2] = transmission chromaticity and excitation purity of dye aqueous solution under standard illuminant D65; format: physicochemical
Protocol: Here the excitation purity is obtained in such a manner that the chromaticity coordinates N of standard illuminant and the chromaticity coordinates C of the obtained dye in the chromaticity diagram are connected with a straight line, and the wavelength corresponding to the intersection point of the extension of the straight line and the spectrum locus is taken as the dominant wavelength, and the excitation purity is calculated from the proportion at the respective points. The chromaticity coordinate C can be obtained in such a manner that the dye is added to water to obtain a dye aqueous solution, the visible light transmittance of the aqueous solution is measured by a spectrophotometer, and the chromaticities x and y in the CIE 1964 supplementary standard […] system under standard illuminant D65 are calculated.
The excitation purity of the dye in the present invention means one measured and calculated with respect to the dye aqueous solution obtained by adding the dye to water and the excitation purity of the anisotropic dye film means one measured and calculated with respect to a film formed by applying a composition for an anisotropic dye film described hereinafter in detail to a substrate. […]

- degree of polarization (P %) (light absorption anisotropy) ([1]; spin coated on rubbed polyimide/glass, from about 500 nm to about 650 nm): at least 80%
- degree of polarization (P %) ([1]; vicinity of maximum absorption wavelength, from 550 nm to 600 nm): at least 90%
- excitation purity (pe) ([2]; dye aqueous solution at a concentration of 10%, optical path length 0.01 mm, D65): 17%
SMILES: COc1cc(N=Nc2c(S(=O)(=O)O)cc3ccc(N=Nc4cc(S(=O)(=O)O)c(N)cc4N)cc3c2O)c(OC)cc1N=Nc1ccc(OC)c(S(=O)(=O)O)c1 [dye No. (1-1)]
- trail of the chromaticity of the aqueous solution at the respective dye concentrations ([2]; C.I.E. chromaticity diagram, 10% (or 5 wt %), 1,000 ppm and 10 ppm): passed near the chromaticity (w) of standard illuminant D65
